According to ChEMBL document CHEMBL3991601, “The target landscape of clinical kinase drugs” (Science, 2017):
Active and inactive are the calls of the source.

How the values were obtained:
[1] = target: T1, Serine/threonine-protein kinase A-Raf (Homo sapiens, UniProt P10398)
T1 sequence (P10398 whole entry): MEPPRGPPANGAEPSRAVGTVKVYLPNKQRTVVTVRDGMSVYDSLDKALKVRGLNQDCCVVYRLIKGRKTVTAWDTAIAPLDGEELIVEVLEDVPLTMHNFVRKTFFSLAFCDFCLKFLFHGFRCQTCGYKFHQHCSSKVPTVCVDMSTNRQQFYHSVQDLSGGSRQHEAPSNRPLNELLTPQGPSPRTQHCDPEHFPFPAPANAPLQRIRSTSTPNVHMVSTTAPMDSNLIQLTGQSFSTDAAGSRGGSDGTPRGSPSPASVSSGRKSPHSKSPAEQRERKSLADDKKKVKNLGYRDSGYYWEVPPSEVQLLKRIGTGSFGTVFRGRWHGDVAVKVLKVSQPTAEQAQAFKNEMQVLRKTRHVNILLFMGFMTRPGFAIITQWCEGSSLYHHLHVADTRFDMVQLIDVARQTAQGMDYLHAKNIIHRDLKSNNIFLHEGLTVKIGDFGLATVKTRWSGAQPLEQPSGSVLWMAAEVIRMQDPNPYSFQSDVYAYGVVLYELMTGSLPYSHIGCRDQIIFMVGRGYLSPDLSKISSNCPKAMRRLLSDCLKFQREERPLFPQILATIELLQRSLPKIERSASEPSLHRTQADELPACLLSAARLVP

Glycine--tRNA ligase = target: T2, Glycine--tRNA ligase (Homo sapiens, UniProt P41250)
T2 sequence (P41250 whole entry): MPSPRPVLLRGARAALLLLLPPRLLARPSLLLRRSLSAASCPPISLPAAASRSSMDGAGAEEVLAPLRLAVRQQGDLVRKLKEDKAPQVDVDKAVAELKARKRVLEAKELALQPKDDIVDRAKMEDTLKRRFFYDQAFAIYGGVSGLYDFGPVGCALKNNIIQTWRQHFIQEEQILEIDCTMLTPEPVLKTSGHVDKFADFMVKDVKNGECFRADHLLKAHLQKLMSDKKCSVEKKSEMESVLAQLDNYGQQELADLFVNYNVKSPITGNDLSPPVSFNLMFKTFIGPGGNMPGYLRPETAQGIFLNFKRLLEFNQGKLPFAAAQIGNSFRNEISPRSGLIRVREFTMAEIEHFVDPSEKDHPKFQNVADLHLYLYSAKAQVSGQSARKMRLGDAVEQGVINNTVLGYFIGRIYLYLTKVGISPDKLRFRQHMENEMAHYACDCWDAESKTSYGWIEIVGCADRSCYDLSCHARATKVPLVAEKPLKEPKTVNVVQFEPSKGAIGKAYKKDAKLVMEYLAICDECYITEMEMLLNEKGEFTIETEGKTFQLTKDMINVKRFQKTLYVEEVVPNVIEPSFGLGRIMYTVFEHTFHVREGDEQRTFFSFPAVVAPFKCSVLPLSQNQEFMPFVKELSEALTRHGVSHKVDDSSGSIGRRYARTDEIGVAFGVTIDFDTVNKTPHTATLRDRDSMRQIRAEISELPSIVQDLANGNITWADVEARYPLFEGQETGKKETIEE

Heme oxygenase 2 = target: T3, Heme oxygenase 2 (Homo sapiens, UniProt P30519)
T3 sequence (P30519 whole entry): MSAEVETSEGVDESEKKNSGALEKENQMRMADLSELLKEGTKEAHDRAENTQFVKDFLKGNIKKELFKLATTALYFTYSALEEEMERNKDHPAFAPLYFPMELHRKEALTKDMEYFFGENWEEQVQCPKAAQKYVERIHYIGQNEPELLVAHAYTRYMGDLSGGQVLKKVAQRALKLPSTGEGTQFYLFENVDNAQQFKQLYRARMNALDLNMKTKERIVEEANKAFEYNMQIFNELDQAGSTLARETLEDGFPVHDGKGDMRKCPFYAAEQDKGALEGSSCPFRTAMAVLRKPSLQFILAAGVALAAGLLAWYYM

[2] = target: Maternal embryonic leucine zipper kinase (Homo sapiens, UniProt Q14680)
Chain of Maternal embryonic leucine zipper kinase (Q14680 whole entry): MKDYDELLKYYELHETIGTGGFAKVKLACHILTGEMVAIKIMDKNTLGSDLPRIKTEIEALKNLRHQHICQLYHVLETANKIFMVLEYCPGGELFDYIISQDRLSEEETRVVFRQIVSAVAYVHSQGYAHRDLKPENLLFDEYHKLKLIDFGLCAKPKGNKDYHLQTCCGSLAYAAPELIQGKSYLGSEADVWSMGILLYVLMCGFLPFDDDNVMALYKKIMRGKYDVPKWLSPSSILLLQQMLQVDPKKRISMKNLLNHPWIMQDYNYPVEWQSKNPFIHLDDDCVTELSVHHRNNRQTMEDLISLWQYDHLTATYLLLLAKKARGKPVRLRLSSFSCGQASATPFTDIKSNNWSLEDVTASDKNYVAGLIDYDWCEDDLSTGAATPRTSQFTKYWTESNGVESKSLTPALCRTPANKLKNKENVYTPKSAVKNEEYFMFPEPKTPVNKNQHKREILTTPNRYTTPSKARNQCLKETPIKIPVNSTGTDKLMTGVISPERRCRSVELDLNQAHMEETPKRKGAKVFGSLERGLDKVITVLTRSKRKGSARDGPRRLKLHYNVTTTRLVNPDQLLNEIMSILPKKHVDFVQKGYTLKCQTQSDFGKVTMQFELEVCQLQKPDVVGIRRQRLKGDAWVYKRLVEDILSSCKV

[3] = target: Protein-tyrosine kinase 2-beta (Homo sapiens, UniProt Q14289)
Chain of Protein-tyrosine kinase 2-beta (Q14289 whole entry): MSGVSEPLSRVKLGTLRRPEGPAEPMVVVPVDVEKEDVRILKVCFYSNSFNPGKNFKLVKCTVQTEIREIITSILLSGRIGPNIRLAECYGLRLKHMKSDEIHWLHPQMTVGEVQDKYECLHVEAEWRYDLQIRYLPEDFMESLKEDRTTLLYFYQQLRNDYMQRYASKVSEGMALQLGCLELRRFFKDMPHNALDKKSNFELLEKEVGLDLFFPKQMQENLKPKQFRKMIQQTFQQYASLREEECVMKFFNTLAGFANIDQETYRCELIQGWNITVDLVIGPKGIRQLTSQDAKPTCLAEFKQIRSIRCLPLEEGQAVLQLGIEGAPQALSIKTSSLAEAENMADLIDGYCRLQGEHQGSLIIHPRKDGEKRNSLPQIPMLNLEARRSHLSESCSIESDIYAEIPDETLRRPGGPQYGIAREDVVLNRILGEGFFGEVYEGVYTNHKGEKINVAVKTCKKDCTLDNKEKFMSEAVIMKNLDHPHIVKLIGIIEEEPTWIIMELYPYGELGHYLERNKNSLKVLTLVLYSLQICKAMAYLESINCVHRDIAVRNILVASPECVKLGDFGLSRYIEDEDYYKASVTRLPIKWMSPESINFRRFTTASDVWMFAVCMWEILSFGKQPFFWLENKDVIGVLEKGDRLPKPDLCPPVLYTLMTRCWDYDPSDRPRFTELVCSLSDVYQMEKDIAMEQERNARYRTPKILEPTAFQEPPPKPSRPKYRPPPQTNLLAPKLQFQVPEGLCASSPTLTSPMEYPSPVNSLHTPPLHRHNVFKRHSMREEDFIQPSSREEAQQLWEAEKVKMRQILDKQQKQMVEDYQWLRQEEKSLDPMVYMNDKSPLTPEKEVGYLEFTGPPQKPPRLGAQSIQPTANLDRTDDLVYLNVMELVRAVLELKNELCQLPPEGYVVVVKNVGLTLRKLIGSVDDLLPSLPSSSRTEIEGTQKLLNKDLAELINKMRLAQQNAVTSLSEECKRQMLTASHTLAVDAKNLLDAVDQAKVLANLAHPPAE

[4] = target: T4, Signal recognition particle receptor subunit alpha (Homo sapiens, UniProt P08240)
T4 sequence (P08240 whole entry): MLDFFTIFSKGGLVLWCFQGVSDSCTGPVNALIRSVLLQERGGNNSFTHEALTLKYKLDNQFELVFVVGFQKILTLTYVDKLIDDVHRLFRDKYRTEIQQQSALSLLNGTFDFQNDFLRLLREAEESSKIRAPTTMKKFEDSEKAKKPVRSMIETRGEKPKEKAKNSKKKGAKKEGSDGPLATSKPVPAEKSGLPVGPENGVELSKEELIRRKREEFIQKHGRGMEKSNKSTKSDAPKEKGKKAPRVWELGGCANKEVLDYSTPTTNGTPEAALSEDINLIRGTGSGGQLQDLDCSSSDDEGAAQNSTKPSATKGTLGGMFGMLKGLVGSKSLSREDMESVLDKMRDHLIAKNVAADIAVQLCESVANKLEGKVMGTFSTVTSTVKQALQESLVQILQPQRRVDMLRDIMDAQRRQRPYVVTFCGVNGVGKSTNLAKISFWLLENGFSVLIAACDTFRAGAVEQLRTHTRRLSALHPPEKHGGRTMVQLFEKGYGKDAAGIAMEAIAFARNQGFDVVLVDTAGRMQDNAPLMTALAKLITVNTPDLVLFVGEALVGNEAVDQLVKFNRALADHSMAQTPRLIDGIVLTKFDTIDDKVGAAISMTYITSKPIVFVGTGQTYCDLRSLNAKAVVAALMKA
Note: in the data inactive means no Kd found up to 30 µM.

Structure (SMILES)	Kd [1]	Kd (Glycine--tRNA ligase)	Kd (Heme oxygenase 2)	Kd [2]	Kd [3]	Kd [4]
Cn1cc(C2=C(c3cn(C4CCN(Cc5ccccn5)CC4)c4ccccc34)C(=O)NC2=O)c2ccccc21 [ENZASTAURIN]	> 30 µM (inactive)	> 30 µM (inactive)	> 30 µM (inactive)			
CC(=O)c1cnc2ccc(-c3cc(Cl)c(O)c(Cl)c3)nc2c1N[C@H]1CC[C@H](CN(C)C)CC1	> 30 µM (inactive)	> 30 µM (inactive)	> 30 µM (inactive)		0.03 µM (active)	> 30 µM (inactive)
Cc1nc2cc(-n3ncc(C(=O)c4cc5ccccc5[nH]4)c3N)ccc2[nH]1 [FGFR INHIBITOR DEBIO 1347]		> 30 µM (inactive)		> 30 µM (inactive)	> 30 µM (inactive)	> 30 µM (inactive)
N#CC1(c2ccc(NC(=O)c3cccnc3NCc3ccncc3)cc2)CCCC1 [RIVOCERANIB]	> 30 µM (inactive)	> 30 µM (inactive)	> 30 µM (inactive)	> 30 µM (inactive)	> 30 µM (inactive)	
CCNC(=O)C#Cc1ccc2c(c1)NC(=O)/C2=C(\Nc1ccc(CN(C)C)cc1)c1ccccc1		> 30 µM (inactive)	> 30 µM (inactive)	0.918 µM (active)	> 30 µM (inactive)	> 30 µM (inactive)
COc1cc(Nc2ncc3c(n2)-c2ccc(Cl)cc2C(c2c(F)cccc2OC)=NC3)ccc1C(=O)O [ALISERTIB]	> 30 µM (inactive)	> 30 µM (inactive)	> 30 µM (inactive)		> 30 µM (inactive)	> 30 µM (inactive)
N#CC[C@H](C1CCCC1)n1cc(-c2ncnc3[nH]ccc23)cn1 [RUXOLITINIB]	> 30 µM (inactive)	> 30 µM (inactive)	> 30 µM (inactive)			
CNC(=O)c1nn(C)c2c1C(C)(C)Cc1cnc(Nc3ccc(N4CCN(C)CC4)cc3)nc1-2 [MILCICLIB]	> 30 µM (inactive)	> 30 µM (inactive)	> 30 µM (inactive)		> 30 µM (inactive)	> 30 µM (inactive)
Cn1ncc(Cl)c1-c1cc(C(=O)N[C@H](CN)Cc2ccc(F)c(F)c2)oc1Cl [UPROSERTIB]	> 30 µM (inactive)	> 30 µM (inactive)		0.24 µM	> 30 µM (inactive)	> 30 µM (inactive)
C[C@H]1CNCCCN1S(=O)(=O)c1cccc2cncc(F)c12	> 30 µM (inactive)	> 30 µM (inactive)	> 30 µM (inactive)	> 30 µM (inactive)	> 30 µM (inactive)	
Cc1[nH]c(/C=C2\C(=O)Nc3ccccc32)c(C)c1CCC(=O)O [ORANTINIB]	> 30 µM (inactive)	> 30 µM (inactive)	> 30 µM (inactive)			> 30 µM (inactive)
CNC(=O)c1ccccc1Sc1ccc2c(/C=C/c3ccccn3)n[nH]c2c1 [AXITINIB]	> 30 µM (inactive)	> 30 µM (inactive)	> 30 µM (inactive)			> 30 µM (inactive)
C=CC(=O)N1CCC[C@H](n2c(=O)n(-c3ccc(Oc4ccccc4)cc3)c3c(N)ncnc32)C1		> 30 µM (inactive)	> 30 µM (inactive)	> 30 µM (inactive)	> 30 µM (inactive)	> 30 µM (inactive)
CCOc1cc2ncc(C#N)c(Nc3ccc(F)c(Cl)c3)c2cc1NC(=O)/C=C/CN(C)C [PELITINIB]	> 30 µM (inactive)	> 30 µM (inactive)	> 30 µM (inactive)	> 30 µM (inactive)	> 30 µM (inactive)	
C[C@@H](NC(=O)c1ncnc(N)c1Cl)c1ncc(C(=O)Nc2cc(C(F)(F)F)c(Cl)cn2)s1 [TOVORAFENIB]	> 30 µM (inactive)	> 30 µM (inactive)	> 30 µM (inactive)	> 30 µM (inactive)	> 30 µM (inactive)	

The next lines start with the values.

Kd [1]	Kd (Glycine--tRNA ligase)	Kd (Heme oxygenase 2)	Kd [2]	Kd [3]	Kd [4]	Structure (SMILES)
> 30 µM (inactive)	> 30 µM (inactive)	> 30 µM (inactive)	> 30 µM (inactive)	> 30 µM (inactive)	> 30 µM (inactive)	Cn1cc(-c2cnc3ccc4ccc(CS(=O)(=O)NCc5ccccn5)cc4c(=O)c3c2)cn1 [MK-8033]
> 30 µM (inactive)	> 30 µM (inactive)	> 30 µM (inactive)	> 30 µM (inactive)	> 30 µM (inactive)	> 30 µM (inactive)	CN(C[C@@H]1COCCO1)S(=O)(=O)Nc1ccc2ccc3ncc(-c4cnn(C)c4)cc3c(=O)c2c1 [MK-2461]
> 30 µM (inactive)	> 30 µM (inactive)	> 30 µM (inactive)	> 30 µM (inactive)	> 30 µM (inactive)		CCn1cc(-c2ccnc3[nH]c(-c4cccc(CN(C)C)c4)cc23)c(-c2ccc(NC(=O)N(C)C)cc2)n1 [GSK-1070916]
> 30 µM (inactive)	> 30 µM (inactive)	> 30 µM (inactive)		0.19 µM (active)	> 30 µM (inactive)	CCS(=O)(=O)c1cccc(-c2cc(C(=O)NC3CCN(C)CC3)c(C)c3[nH]c4ncc(C)cc4c23)c1 [TAK-901]
> 30 µM (inactive)	> 30 µM (inactive)		> 30 µM (inactive)	> 30 µM (inactive)	> 30 µM (inactive)	NC1(c2ccc(-c3nc4ccn5c(=O)[nH]nc5c4cc3-c3ccccc3)cc2)CCC1 [MK-2206]
> 30 µM (inactive)	> 30 µM (inactive)	> 30 µM (inactive)			> 30 µM (inactive)	CC(=O)NCC(=O)N1[C@@H]2CC[C@H]1c1ccc(Nc3ncc(C(F)(F)F)c(NC4CCC4)n3)cc12 [PF-03814735]
> 30 µM (inactive)	> 30 µM (inactive)	> 30 µM (inactive)	> 30 µM (inactive)	> 30 µM (inactive)		Nc1ncnc2c1c(-c1cccc(OCc3ccccc3)c1)cn2[C@H]1C[C@@H](CN2CCC2)C1 [AEW-541]
> 30 µM (inactive)	> 30 µM (inactive)	> 30 µM (inactive)			> 30 µM (inactive)	C[C@@H](Oc1cc(-n2cnc3ccc(CN4CCN(C)CC4)cc32)sc1C(N)=O)c1ccccc1C(F)(F)F [GSK-461364]
> 30 µM (inactive)	> 30 µM (inactive)	> 30 µM (inactive)			> 30 µM (inactive)	O=C(NOCCO)c1cc(CN2OCCCC2=O)c(F)c(F)c1Nc1ccc(I)cc1F [RO-4987655]
> 30 µM (inactive)	> 30 µM (inactive)	> 30 µM (inactive)			> 30 µM (inactive)	NC(=O)c1c(OCc2c(F)cc(Br)cc2F)nsc1NC(=O)NCCCCN1CCCC1 [OSI-632]
> 30 µM (inactive)	> 30 µM (inactive)	> 30 µM (inactive)		> 30 µM (inactive)	> 30 µM (inactive)	O=C(Nc1c[nH]nc1-c1nc2cc(CN3CCOCC3)ccc2[nH]1)NC1CC1 [AT-9283]
